Results taken from patent EP0247464A1, “New quinolone compounds and a process for the preparation thereof” (FUJISAWA PHARMACEUTICAL CO., LTD., priority 1986, dated 1987).
In brackets after ≈: the same amount, converted by molar mass.

Legend:
[1] = test system: Mycoplasma pulmonis PG-22; experiment: Minimal Inhibitory Concentration (MIC), antimycoplasmal activity, agar dilution method; assay type: cell-based; settings: PG22, 37°C for 3 to 4 days, 5 per cent carbon dioxide, lowest concentration completely inhibiting colony growth
Protocol: MICs of test compound were obtained by the agar dilution method.
Agar plates contained two-fold decremental dilutions of the test compound, ranging from 0.05 to 100 pg/ml. The inoculum (0.01 ml, containing approximately 10^5 CFU/ml of liquid medium which had been cultured at 37°C for 3 days) was plated on moisture-free media surfaces. Plates were placed in a humidified atmosphere of 5 per cent carbon dioxide and 95 per cent air, and incubated at 37°C for 3 to 4 days. The colonies grown on the plate were observed under a low microscopic magnification (x60).

Vibrio anguillarum NP-1 = experiment: Minimal Inhibitory Concentration (MIC), antibacterial activity against fish-disease strain; assay type: cell-based; settings: NP1, 2.5% sodium chloride added Heart Infusion Agar, 20 hours incubation at 25°C
Protocol: MICs againstvibrio anguillarum originated in fish diseases were obtained by the following method. An overnight culture broth of each strain was diluted 10-fold (approximately 10^6 cells/ml) and was stamped on 2.5% sodium chloride added Heart Infusion Agar containing graded concentrations of the test compounds, and MICs were expressed in terms of pg/ml after 20 hours incubation at 25°C.

Acute toxicity in mice = assay type: in vivo; settings: 100 mg/kg injected into lateral vein, ICR-strain male mouse, 5 mice, observed for 7 days
Protocol: The test compound (16 mg) was dissolved in 1N NaOH (0.1 ml) and steril distilled water (3.9 ml).

Q: What does the source list for O=C(O)c1cn(C2CC2)c2c(F)c(N3CCNCC3)c(F)c(F)c2c1=O [compound (I-d), 1-Cyclopropyl-5,6,8-trifluoro-7-(1-piperazinyl)-4-quinolone-3-carboxylic acid]?
A: MIC [1]: 0.1 µg/mL (≈ 0.272 µM); MIC (Vibrio anguillarum NP-1): 0.1 µg/mL (≈ 0.272 µM); Survivals / test mice (Acute toxicity in mice): 5 / 5
